For `O=C(O)c1ccncc1Br`, the melting point was 237 to 239 °C.
In the case of `CN(C)C(=O)Nc1ccc(Cl)c(C(=O)O)c1`, the melting point is reported as 214 to 216 °C.
`CCOC(=O)C(=O)CC(=O)c1ccc2c(c1)OCO2` gave a melting point of 61 to 63 °C.
In the case of `NC(=O)C1OCCc2ccccc21` (stereo unspecified), the melting point is reported as 169 to 171 °C.
With `Cc1cc(C#N)ccc1C(=O)O` the melting point was 192 to 194 °C.
Compound `N#Cc1ccc(Oc2cccc(N)c2)cc1` has a melting point of 86 to 88 °C.
Compound `O=C(O)COc1ccc2c3c(c(=O)oc2c1)CCC3` has a melting point of 170 to 172 °C.
With `COC(=O)c1ccc(S(=O)(=O)Cl)c(C)c1` the melting point was 51 to 53 °C.
With `CCc1nc(C(=O)O)nn1-c1ccccc1Cl` the melting point was 164 to 166 °C.
`CC(C)N(C)S(=O)(=O)c1ccc(C(=O)O)cc1` showed a melting point of 176 to 178 °C.
`O=C(c1ccc(F)cc1)N1CCNCC1` showed a melting point of 74 to 76 °C.
`COc1cc2nc(C)sc2cc1OC` showed a melting point of 70 to 72 °C.
For `N#Cc1ccc(Oc2ccc(N)cc2)cc1`, the melting point was 110 to 112 °C.
For `Cc1cn2c(n1)CCC(N)C2` (stereo unspecified), the melting point was 49 to 51 °C.
With `CC(C)(C)OC(=O)CC(C)(C#N)C(=O)O` (stereo unspecified) the melting point was 89 to 91 °C.
For `CN1C(=O)c2cccc(N)c2C1=O`, the melting point was 199 to 201 °C.
Work on `Cc1noc(C)c1S(N)(=O)=O` yielded a melting point of 151 to 152 °C.
`OC1C=C(c2ccc(Cl)cc2)CC1` (stereo unspecified) gave a melting point of 89 to 91 °C.
With `CCN1C(=N)C(C)(C)N(C)C1=O` the melting point was 88 to 90 °C.
Work on `CCOC(=O)c1c[nH]cc(C)c1=O` yielded a melting point of 225 to 227 °C.
With `O=C(O)CCNC(=O)c1ccc(F)cc1Cl` the melting point was 141 to 143 °C.
With `C#CCS(=O)(=O)CCNC(=O)OC(C)(C)C` the melting point was 126 to 128 °C.
`CCc1nnc(-c2cccc(N)c2)o1` showed a melting point of 88 to 90 °C.
Work on `CC1(c2ccccc2)CC(=O)NC(=O)C1` yielded a melting point of 150 to 152 °C.
`O=C1CCS(=O)(=O)c2cc(F)c(F)cc21` gave a melting point of 149 to 151 °C.
Compound `O=[N+]([O-])c1ccc(Cl)c(Br)c1` has a melting point of 57 to 59 °C.
`CNc1ccc(N)c(C(F)(F)F)c1` gave a melting point of 86 to 88 °C.
For `ClCc1nc(Cl)c2cnn(-c3ccccc3)c2n1`, the melting point was 112 to 114 °C.
In the case of `c1cnc(N2CCN(c3ncccn3)CC2)nc1`, the melting point is reported as 144 to 146 °C.
Work on `Cn1c(S)nnc1-c1ccccc1Cl` yielded a melting point of 144 to 146 °C.
Work on `CNC(=O)c1ccc(C(=O)O)cn1` yielded a melting point of 263 to 265 °C.
With `COc1ccc(C(=O)N2CCC(C(=O)O)CC2)c2ccccc12` the melting point was 254 to 257 °C.
`CN(C)C(=O)c1cccc(C(=O)O)c1` showed a melting point of 134 to 136 °C.
In the case of `Oc1cccc(Oc2ccncn2)c1`, the melting point is reported as 102 to 104 °C.
For `O=C(NCc1ccccc1)c1ccccc1O`, the melting point was 78 to 82 °C.
Work on `CC(C)(C)c1ccc(C(=O)O)s1` yielded a melting point of 119 to 121 °C.
For `Cc1ccccc1NC(=O)C1CCc2ccccc2N1` (stereo unspecified), the melting point was 115 to 117 °C.
Work on `O=C(O)CCCOc1cccc(Cl)c1Cl` yielded a melting point of 121 to 123 °C.
Work on `CCCCOc1ccc(C=O)cc1OCC` yielded a melting point of 38 to 40 °C.
In the case of `O=C(O)c1cccc(OCc2cccnc2)c1`, the melting point is reported as 195 to 197 °C.
In the case of `NNC(=O)c1csc(N2CCOCC2)n1`, the melting point is reported as 168 to 170 °C.
`Cc1cc(C)c(NC(=O)C(C)Cl)c(Cl)c1` (stereo unspecified) showed a melting point of 157 to 159 °C.
Work on `Cc1nnc(S)n1-c1cccc(N)c1` yielded a melting point of 219 to 221 °C.
For `O=C(O)c1cc(Cl)ccn1`, the melting point was 170 to 174 °C.
`NNc1ccc2cccc(O)c2n1` showed a melting point of 156 to 158 °C.
Work on `Fc1ccc(-c2cnc(C3CCNCC3)[nH]2)cc1F` yielded a melting point of 187 to 189 °C.
Compound `CCN(CC)c1ccc(C(=O)O)cn1` has a melting point of 154 to 156 °C.
`Nc1ccc(CN2C(=O)CCC2=O)cc1` showed a melting point of 141 to 143 °C.
`O=C1CSCc2c(F)cccc21` gave a melting point of 59 to 61 °C.
`COc1ccc(NC(=O)C2(N)CCCC2)cc1OC` showed a melting point of 116 to 118 °C.
In the case of `CS(=O)(=O)Nc1ccc(C(=O)CCl)cc1`, the melting point is reported as 155 to 158 °C.
Work on `CCC(=O)c1ccc2c(c1)CC(=O)N2C` yielded a melting point of 205 to 207 °C.
`CC(C)(C)OC(=O)Nc1cc(N)c(F)cc1F` gave a melting point of 117 to 119 °C.
With `COc1ccccc1N1CC(C(=O)O)CC1=O` (stereo unspecified) the melting point was 139 to 141 °C.
`O=Cc1ccc(-n2ccnc2)nc1` gave a melting point of 139 to 141 °C.
For `O=C(O)CCOc1ccc(Cl)cc1Cl`, the melting point was 93 to 95 °C.
In the case of `CNCC(O)COc1ccc([N+](=O)[O-])cc1` (stereo unspecified), the melting point is reported as 142 to 144 °C.
`CCCCCC(=O)Nc1ccc(C(=O)CCl)cc1` showed a melting point of 179 to 181 °C.
Compound `CC(NC(=O)OC(C)(C)C)C(=O)Cc1ccccc1` (stereo unspecified) has a melting point of 59 to 61 °C.
Work on `O=C1C=CC(=O)N1CCO` yielded a melting point of 59 to 61 °C.
With `CC(C)(C)C(=O)N1CSCC1C(=O)O` (stereo unspecified) the melting point was 118 to 120 °C.
Compound `CC(C)(C)NS(=O)(=O)c1ccc(F)c(N)c1` has a melting point of 99 to 101 °C.
`Cc1cc(F)c2c(c1)C(=O)C(=O)N2` showed a melting point of 225 to 227 °C.
In the case of `Cc1ccc(S(=O)(=O)N(C)c2ccc(OCC(=O)O)cc2)cc1`, the melting point is reported as 152 to 154 °C.
Work on `CC(C)(CCCc1ccccc1)C(=O)O` yielded a melting point of 48 to 50 °C.
For `CCn1cc2ccc(N)cc2n1`, the melting point was 97 to 99 °C.
`O=Cc1ccc(-c2cc(Cl)ccc2Cl)o1` gave a melting point of 84 to 86 °C.
`Cc1ccsc1-c1nsc(N)n1` gave a melting point of 165 to 167 °C.
For `Cn1cc(N)cc(Br)c1=O`, the melting point was 159 to 161 °C.
With `N#Cc1ccnc(-n2cccn2)c1` the melting point was 96 to 98 °C.
For `CC(=O)c1cc(Br)sc1C`, the melting point was 41 to 43 °C.
